From patent publication US12559465B2, “Substituted benzotriazinone metabolites of a GPR139 agonist” (TAKEDA PHARMACEUTICAL COMPANY LIMITED, priority 2020, dated 2026) come the findings set out here.

Some results are limits rather than exact numbers.

For orientation: IC50 means the concentration that gives 50% inhibition.

What all share (type): in vitro ADME
Assay [1] deals with T1, BSEP (Canis lupus familiaris, UniProt B8K1W2).
T1 sequence (B8K1W2 1-1325): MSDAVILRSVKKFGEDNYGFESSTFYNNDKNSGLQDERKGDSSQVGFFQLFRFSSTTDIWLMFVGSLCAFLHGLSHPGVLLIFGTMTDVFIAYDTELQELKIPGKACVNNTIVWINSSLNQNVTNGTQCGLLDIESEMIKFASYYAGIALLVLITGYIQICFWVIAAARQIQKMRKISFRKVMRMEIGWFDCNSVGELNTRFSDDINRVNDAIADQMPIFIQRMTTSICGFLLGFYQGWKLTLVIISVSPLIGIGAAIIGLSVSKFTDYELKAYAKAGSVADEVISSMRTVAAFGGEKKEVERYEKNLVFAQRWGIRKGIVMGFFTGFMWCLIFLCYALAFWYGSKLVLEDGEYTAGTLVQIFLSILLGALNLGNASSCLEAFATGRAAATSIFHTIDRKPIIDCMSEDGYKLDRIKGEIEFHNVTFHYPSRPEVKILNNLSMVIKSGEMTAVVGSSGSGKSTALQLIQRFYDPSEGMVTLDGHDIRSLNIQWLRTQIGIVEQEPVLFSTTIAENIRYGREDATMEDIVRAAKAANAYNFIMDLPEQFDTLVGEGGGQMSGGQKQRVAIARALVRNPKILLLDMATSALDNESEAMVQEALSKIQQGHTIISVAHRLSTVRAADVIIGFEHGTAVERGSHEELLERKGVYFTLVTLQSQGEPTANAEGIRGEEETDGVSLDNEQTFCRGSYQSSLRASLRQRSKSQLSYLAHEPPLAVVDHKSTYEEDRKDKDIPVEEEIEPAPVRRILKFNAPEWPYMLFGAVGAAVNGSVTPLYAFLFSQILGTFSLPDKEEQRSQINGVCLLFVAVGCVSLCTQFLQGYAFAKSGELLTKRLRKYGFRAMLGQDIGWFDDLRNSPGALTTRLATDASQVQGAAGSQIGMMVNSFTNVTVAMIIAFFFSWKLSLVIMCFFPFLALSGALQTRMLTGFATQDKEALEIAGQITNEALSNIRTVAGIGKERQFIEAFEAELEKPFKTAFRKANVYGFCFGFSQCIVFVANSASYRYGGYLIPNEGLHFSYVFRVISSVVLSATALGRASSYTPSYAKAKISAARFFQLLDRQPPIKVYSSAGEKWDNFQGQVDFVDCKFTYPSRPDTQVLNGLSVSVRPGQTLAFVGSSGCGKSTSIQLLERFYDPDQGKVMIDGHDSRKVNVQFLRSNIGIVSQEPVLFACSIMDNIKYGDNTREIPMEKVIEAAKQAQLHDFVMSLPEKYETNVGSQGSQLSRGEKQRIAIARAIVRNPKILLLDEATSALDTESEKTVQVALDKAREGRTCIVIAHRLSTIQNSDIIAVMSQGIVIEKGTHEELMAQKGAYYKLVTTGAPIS
Description: BSEP inhibition in membrane vesicles (dog). The protocol: (§1) Inhibition of BSEP (dog and human) and MRP2 (dog and human) by Compound A and Compound B were tested in membrane vesicles.

Assay [2] deals with BSEP (Homo sapiens, UniProt O95342). The experiment in a line: BSEP inhibition in membrane vesicles (human). The protocol: as §1
In assay [3] the target is MRP2 (Canis lupus familiaris, UniProt A0A8I3SCV5). The experiment in a line: MRP2 inhibition in membrane vesicles (dog). The protocol: as §1
Assay [4] has as its target MRP2 (Homo sapiens, UniProt Q92887). Description: MRP2 inhibition in membrane vesicles (human). Here is the method:
as §1

In assay [5] the target is T2, BSEP (Rattus norvegicus, UniProt O70127).
T2 sequence (O70127 1-1321): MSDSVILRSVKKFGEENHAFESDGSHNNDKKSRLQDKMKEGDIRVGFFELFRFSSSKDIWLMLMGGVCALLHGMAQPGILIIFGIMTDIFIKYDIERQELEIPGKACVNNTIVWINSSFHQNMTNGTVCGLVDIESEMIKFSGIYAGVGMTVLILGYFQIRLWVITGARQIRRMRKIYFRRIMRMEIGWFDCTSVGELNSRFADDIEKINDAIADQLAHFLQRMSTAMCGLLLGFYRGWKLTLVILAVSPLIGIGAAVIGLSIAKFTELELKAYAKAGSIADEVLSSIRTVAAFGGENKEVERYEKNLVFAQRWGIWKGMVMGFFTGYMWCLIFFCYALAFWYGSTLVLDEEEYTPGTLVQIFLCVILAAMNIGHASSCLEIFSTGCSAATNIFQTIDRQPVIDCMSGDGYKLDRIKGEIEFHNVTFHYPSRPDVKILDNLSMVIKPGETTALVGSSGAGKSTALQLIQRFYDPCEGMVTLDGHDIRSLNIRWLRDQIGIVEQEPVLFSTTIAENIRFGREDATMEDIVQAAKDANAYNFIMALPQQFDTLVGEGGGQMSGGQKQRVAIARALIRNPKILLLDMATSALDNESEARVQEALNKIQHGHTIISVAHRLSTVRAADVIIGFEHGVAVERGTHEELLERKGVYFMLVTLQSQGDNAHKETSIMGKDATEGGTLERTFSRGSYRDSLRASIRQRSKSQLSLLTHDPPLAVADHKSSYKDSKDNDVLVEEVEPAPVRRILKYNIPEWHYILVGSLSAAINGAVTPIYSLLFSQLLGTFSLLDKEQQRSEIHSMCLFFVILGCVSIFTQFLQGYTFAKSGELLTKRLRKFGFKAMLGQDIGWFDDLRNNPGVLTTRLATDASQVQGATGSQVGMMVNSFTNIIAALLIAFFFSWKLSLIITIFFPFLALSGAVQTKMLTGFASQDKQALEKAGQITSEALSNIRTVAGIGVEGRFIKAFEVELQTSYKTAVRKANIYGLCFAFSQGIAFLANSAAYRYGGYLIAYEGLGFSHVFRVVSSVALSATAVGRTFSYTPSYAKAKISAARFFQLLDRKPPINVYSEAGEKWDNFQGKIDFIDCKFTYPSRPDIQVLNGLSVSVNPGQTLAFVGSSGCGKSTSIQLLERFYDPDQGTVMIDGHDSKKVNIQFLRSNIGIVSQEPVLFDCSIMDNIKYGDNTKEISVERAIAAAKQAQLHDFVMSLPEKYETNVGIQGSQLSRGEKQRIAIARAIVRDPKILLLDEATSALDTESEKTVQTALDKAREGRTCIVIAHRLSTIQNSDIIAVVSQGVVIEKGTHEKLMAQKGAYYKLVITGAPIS
The experiment in a line: BSEP inhibition in membrane vesicles (rat).

In assay [6] the target is MRP2 (Rattus norvegicus, UniProt Q63120). The experiment in a line: MRP2 inhibition in membrane vesicles (rat).
For another assay, the target named is MRP3 (Homo sapiens, UniProt O15438). The experiment in a line: MRP3 inhibition (human).
The target of another assay is T3, MRP4 (Homo sapiens, UniProt O15439).
T3 sequence (O15439 1-1325): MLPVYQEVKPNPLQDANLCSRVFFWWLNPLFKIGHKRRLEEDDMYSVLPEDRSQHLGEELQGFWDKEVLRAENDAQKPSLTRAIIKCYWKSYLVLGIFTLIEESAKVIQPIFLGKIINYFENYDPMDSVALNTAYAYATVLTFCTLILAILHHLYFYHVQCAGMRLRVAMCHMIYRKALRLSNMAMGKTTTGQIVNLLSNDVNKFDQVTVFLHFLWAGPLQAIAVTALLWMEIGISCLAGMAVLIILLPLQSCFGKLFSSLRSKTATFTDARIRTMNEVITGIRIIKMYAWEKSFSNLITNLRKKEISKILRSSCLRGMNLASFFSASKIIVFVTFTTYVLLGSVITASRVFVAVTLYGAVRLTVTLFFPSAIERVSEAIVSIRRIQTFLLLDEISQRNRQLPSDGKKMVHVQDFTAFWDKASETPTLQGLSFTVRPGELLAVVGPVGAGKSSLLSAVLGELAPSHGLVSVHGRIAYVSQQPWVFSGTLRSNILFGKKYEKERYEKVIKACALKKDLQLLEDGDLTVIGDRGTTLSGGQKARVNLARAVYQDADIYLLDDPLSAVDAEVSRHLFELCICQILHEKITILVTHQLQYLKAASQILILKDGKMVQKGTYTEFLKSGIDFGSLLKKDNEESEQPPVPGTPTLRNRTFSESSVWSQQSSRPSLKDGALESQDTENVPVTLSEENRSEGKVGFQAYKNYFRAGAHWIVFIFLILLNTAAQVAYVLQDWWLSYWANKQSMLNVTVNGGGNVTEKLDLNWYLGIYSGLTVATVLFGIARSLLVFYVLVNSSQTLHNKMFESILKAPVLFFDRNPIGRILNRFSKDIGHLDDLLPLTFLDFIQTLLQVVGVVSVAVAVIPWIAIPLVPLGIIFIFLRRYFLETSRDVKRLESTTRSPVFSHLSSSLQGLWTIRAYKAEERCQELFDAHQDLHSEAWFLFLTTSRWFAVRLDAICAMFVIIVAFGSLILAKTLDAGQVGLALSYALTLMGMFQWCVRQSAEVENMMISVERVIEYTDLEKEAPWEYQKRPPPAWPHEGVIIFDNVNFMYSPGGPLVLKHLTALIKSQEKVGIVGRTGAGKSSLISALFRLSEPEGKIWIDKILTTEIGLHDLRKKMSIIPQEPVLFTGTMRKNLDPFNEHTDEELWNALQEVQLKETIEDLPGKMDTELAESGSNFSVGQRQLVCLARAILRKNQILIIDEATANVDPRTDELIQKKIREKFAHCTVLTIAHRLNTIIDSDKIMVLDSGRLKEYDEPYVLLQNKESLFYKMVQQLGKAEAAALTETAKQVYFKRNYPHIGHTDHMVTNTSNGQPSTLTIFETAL
The experiment in a line: MRP4 inhibition (human).

Sequence of BSEP (Homo sapiens, UniProt O95342) (O95342 whole entry): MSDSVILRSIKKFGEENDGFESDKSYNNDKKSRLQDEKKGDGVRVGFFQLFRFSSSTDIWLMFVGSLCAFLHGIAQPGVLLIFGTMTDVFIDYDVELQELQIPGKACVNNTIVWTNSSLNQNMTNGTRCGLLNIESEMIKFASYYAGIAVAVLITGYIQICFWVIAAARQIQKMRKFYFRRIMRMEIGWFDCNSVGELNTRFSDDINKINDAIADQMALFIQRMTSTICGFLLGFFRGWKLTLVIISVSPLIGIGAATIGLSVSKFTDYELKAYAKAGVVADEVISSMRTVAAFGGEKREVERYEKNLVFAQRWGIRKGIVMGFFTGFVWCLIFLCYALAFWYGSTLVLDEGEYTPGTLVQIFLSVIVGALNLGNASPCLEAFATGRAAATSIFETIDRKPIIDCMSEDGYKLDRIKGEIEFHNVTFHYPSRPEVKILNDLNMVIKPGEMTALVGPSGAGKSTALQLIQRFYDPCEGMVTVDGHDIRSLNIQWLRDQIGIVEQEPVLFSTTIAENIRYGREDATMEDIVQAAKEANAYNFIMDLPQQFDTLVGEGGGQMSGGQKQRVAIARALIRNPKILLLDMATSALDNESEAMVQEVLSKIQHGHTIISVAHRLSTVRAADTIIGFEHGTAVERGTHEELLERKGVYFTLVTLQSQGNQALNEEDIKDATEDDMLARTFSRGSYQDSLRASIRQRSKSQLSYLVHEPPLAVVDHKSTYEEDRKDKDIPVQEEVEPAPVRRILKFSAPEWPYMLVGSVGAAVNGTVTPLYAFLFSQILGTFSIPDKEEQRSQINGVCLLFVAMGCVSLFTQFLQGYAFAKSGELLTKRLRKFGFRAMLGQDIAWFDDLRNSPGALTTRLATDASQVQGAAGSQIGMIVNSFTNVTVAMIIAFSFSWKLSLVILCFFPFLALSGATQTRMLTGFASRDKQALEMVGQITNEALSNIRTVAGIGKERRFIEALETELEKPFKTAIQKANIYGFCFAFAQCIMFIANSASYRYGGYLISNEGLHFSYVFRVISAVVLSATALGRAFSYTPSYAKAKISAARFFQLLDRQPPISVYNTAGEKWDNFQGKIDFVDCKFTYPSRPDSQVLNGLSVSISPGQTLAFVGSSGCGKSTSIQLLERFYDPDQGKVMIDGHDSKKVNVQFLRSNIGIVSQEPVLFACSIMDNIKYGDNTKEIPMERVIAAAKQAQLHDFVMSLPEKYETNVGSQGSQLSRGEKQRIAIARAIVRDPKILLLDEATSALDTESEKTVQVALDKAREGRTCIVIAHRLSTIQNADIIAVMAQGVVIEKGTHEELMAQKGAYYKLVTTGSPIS
Sequence of MRP2 (Canis lupus familiaris, UniProt A0A8I3SCV5) (A0A8I3SCV5 1-1544): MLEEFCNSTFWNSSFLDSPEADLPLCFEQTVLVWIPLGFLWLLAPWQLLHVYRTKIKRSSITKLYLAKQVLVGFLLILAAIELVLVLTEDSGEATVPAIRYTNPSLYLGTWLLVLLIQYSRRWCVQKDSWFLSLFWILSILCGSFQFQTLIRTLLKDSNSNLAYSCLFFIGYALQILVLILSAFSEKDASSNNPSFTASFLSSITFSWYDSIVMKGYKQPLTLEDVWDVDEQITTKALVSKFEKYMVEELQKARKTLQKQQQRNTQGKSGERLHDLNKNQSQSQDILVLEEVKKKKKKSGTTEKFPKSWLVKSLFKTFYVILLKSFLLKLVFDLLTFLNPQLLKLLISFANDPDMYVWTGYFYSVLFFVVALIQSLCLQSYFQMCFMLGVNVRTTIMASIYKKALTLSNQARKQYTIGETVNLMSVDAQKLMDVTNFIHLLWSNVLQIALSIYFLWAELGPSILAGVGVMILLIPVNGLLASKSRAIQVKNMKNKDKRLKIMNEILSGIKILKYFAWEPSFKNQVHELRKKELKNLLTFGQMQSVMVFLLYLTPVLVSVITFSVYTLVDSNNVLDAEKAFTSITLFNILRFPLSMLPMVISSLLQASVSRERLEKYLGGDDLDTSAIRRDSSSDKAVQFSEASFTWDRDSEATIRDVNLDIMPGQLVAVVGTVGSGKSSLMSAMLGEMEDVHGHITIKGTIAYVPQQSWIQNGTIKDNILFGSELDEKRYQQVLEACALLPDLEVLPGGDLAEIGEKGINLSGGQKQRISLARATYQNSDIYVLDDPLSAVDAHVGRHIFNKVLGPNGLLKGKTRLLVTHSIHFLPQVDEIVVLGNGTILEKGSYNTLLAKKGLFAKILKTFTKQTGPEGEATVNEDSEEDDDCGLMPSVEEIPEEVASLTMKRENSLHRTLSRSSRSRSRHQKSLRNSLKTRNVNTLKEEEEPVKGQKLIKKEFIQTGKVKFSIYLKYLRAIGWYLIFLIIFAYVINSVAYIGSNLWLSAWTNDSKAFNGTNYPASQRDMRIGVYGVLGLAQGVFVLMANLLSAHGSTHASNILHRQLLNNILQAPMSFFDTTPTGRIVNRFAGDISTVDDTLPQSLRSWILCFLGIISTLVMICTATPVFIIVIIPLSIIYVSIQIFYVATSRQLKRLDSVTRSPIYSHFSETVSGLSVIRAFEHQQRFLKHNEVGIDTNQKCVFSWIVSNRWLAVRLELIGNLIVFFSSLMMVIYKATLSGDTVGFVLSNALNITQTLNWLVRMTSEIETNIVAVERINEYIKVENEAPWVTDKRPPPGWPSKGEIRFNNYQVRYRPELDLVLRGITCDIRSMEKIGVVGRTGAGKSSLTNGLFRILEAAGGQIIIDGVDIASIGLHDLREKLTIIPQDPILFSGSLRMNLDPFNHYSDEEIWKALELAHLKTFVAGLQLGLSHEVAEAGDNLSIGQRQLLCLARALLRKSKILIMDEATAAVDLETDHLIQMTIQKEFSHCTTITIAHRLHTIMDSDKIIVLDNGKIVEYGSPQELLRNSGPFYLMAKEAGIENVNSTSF
Sequence of MRP2 (Homo sapiens, UniProt Q92887) (Q92887 whole entry): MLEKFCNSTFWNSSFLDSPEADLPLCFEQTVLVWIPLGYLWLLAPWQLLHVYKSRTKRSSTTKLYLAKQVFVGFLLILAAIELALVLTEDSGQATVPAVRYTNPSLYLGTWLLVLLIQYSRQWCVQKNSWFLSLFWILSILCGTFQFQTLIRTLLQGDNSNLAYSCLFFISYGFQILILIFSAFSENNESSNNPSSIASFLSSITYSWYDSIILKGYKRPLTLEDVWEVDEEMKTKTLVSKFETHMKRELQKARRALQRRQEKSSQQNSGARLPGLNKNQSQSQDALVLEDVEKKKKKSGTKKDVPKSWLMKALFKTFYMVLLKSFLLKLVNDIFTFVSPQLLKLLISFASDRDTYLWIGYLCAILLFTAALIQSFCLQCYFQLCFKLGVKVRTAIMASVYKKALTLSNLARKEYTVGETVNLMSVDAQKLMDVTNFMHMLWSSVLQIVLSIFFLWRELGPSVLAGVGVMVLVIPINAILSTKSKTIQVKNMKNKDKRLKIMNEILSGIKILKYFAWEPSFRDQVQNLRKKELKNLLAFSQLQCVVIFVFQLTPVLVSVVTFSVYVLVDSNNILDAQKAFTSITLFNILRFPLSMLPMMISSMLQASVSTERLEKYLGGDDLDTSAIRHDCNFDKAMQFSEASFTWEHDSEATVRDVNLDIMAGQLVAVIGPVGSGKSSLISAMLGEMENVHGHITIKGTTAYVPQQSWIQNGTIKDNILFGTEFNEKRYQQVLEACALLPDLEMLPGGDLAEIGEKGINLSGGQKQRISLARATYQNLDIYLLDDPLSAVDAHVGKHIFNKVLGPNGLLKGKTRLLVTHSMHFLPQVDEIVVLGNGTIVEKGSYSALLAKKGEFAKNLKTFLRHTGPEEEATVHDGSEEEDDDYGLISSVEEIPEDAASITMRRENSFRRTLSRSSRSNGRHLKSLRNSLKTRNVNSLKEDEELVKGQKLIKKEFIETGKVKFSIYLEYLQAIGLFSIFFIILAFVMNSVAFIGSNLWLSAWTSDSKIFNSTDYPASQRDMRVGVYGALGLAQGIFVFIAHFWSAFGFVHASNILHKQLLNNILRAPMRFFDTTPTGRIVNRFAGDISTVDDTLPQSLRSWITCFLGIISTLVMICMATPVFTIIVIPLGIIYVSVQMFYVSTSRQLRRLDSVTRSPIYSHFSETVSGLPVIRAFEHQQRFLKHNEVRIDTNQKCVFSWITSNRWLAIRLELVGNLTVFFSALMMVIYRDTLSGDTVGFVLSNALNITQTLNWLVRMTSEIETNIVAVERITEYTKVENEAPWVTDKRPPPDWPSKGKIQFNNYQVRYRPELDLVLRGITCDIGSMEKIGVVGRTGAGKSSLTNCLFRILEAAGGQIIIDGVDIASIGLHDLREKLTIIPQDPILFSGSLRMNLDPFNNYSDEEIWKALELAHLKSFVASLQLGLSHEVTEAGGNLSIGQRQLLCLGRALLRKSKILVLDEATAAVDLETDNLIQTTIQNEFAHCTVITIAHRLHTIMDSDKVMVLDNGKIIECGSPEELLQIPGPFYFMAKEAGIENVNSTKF

As to `C[C@H](NC(=O)Cn1nnc2ccc(O[C@@H]3O[C@H](C(=O)O)[C@@H](O)[C@H](O)[C@H]3O)cc2c1=O)c1ccc(OC(F)(F)F)cc1` [Compound B, (2S,3S,4S,5R,6S)-3,4,5-trihydroxy-6-((4-oxo-3-(2-oxo-2-(((S)-1-(4-(trifluoromethoxy)phenyl)ethyl)amino)ethyl)-3,4-dihydrobenzo[d][1,2,3]triazin-6-yl)oxy)tetrahydro-2H-pyran-2-carboxylic acid], the IC50 against BSEP [1] was > 200 µM; against BSEP [2], > 200 µM; at MRP2 [3], 1.8 µM; at MRP2 [4] it was 83 µM. In addition, the BSEP inhibition result at BSEP [1] (result in words) and at BSEP [2] (result in words) was “not identified” each time.

Regarding `C[C@H](NC(=O)Cn1nnc2ccccc2c1=O)c1ccc(OC(F)(F)F)cc1` [Compound A, (S)-2-(4-oxobenzo[d][1,2,3]triazin-3(4H)-yl)-N-(1-(4-(trifluoromethoxy)phenyl)ethyl)acetamide], the IC50 against BSEP [5] was > 200 µM; on BSEP [1], 72.3 µM; at BSEP [2], > 200 µM; on MRP2 [6], > 200 µM; on MRP2 [3] it was > 200 µM; at MRP2 [4] it was > 200 µM. The 50% inhibitory concentration (IC50) against MRP3 and on MRP4 was > 200 µM in each case.
